Values of other authors in patent US20240424001A1, “LOCAL […] OF GROWTH AND REPAIR PROMOTING COMPOUNDS FOR TREATING, REDUCING AND/OR PREVENTING STRESS URINARY IN[…] FECAL INCONTINENCE” (STATERA PHARMA INC., priority 2021, published 2024).

Settings: approximate; testosterone = 100%; varies with species studied and assay methodology (ref. 14)

SMILES	relative potency of androgens
C[C@]12CC[C@H]3[C@@H](CCC4=CC(=O)CC[C@@]43C)[C@@H]1CC[C@@H]2O [testosterone]	~100%
C[C@]12CCC(=O)C=C1CC[C@@H]1[C@@H]2CC[C@]2(C)C(=O)CC[C@@H]12 [androstenedione]	~10%
C[C@]12CC[C@H](O)CC1=CC[C@@H]1[C@@H]2CC[C@]2(C)C(=O)CC[C@@H]12 [dehydroepiandrosterone]	~5%
